How the values were obtained:
Experiment in all cases: area under the viability dose-response curve (AUC) (AUC (arbitrary units, max 500 = no viability loss)); higher = less sensitive (higher viability)
Details in all cases: exposure time: 120 h; concentration range: 0.1 nM - 10 µM, 6 doses
96F1 = test system: 96F1 (fetal-I hepatoblastoma organoid with intermediate liver markers)
Method: (§1)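 Patient-derived hepatoblastoma tumor organoids (about 50 organoids per well, 384-well plates, medium with 5% BME) were treated with the PMC pediatric cancer drug library. Each drug was tested in duplicate at 6 concentrations (0.1 nM to 10 µM, 10-fold steps).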

8F1 = test system: 8F1 (fetal-I hepatoblastoma organoid with intermediate liver markers)
Method: as §1

135F2 = test system: 135F2 (fetal-II hepatoblastoma organoid with high liver markers)
Method: as §1

3E = test system: 3E (embryonal-type hepatoblastoma organoid)
Method: as §1

27F1 = test system: 27F1 (fetal-I hepatoblastoma organoid with intermediate liver markers)
Method: as §1

22E = test system: 22E (embryonal-type hepatoblastoma organoid)
Method: as §1

10F2 = test system: 10F2 (fetal-II hepatoblastoma organoid with high liver markers)
Method: as §1

17E = test system: 17E (embryonal-type hepatoblastoma organoid)
Method: as §1

13F2 = test system: 13F2 (fetal-II hepatoblastoma organoid with high liver markers)
Method: as §1

13E = test system: 13E (embryonal-type hepatoblastoma organoid)
Method: as §1

17F1 = test system: 17F1 (fetal-I hepatoblastoma organoid with intermediate liver markers)
Method: as §1

| Compound | area under the viability dose-response curve (96F1) | area under the viability dose-response curve (8F1) | area under the viability dose-response curve (135F2) | area under the viability dose-response curve (3E) | area under the viability dose-response curve (27F1) | area under the viability dose-response curve (22E) | area under the viability dose-response curve (10F2) | area under the viability dose-response curve (17E) | area under the viability dose-response curve (13F2) | area under the viability dose-response curve (13E) | area under the viability dose-response curve (17F1) |
| --- | --- | --- | --- | --- | --- | --- | --- | --- | --- | --- | --- |
| COc1c(OCCCN2CCOCC2)ccc2c1N=C(NC(=O)c1cnc(N)nc1)N1CCN=C21 [Copanlisib] | 352 | 390 | 315 | > 500 | 485 | 300 |  |  |  |  |  |
| COc1cc2nc(C)nc(N[C@H](C)c3cc(N)cc(C(F)(F)F)c3)c2cc1O[C@H]1CCOC1 [BI-3406] | 413 | > 500 | 472 | > 500 | 481 |  |  |  |  |  |  |
| O=c1[nH]c(=O)n([C@@H]2O[C@H](CO)[C@@H](O)[C@H]2O)cc1F [5-Fluorouridine] | 333 | 447 | 303 | 319 | 364 | 420 |  |  |  |  |  |
| N#CC1(c2ccc(NC(=O)c3cccnc3NCc3ccncc3)cc2)CCCC1 [Apatinib] | 481 | 498 | 470 | 491 | > 500 | 438 | 490 | 476 | 484 | 497 |  |
| Cc1sc2c(c1C)C(c1ccc(Cl)cc1)=N[C@@H](CC(=O)NCCCN1CCN(C)CC1)c1nnc(C)n1-2 [(S)-JQ-35] | 496 | 345 | 388 | 309 | 447 | 410 |  |  |  |  |  |
| O=P(O)(NCCCl)NCCCl [Palifosfamide (Ifosfamide)] |  |  |  |  |  |  | 474 | 473 | 498 | 493 | 477 |
| CO[C@@H](C)Cn1c(=O)n(C)c2cnc3ccc(-c4cncc(C(C)(C)O)c4)cc3c21 [Samotolisib] | 406 | 442 | 361 | 306 | 424 |  | 372 | 357 | 334 | 364 | 446 |
| COc1cc2c(cc1O)CCN[C@]21CS[C@@H]2c3c(OC(C)=O)c(C)c4c(c3[C@H](COC1=O)N1[C@@H]2[C@H]2c3c(cc(C)c(OC)c3O)C[C@@H]([C@@H]1O)N2C)OCO4 [Trabectedin] | 84.9 | 144 | 57.9 | 24.1 | 117 | 133 |  |  |  |  |  |
| N#Cc1c(Oc2ccc(F)c(NC(=O)Cc3cccc(C(F)(F)F)c3)c2)ccc2nc(NC(=O)C3CC3)sc12 [TAK632] | 417 | 478 | 393 | 472 | 467 | 455 |  |  |  |  |  |
| O=C(O)C1(C(=O)O)CCC1.[NH2-].[NH2-].[Pt+2] [Carboplatin] | 476 | 433 | 494 | 478 | 487 | > 500 | 470 | 491 | 462 |  | 494 |
| CC(C)n1c(=O)n(C)c2cnc3cc(F)c(-c4ccc(OCCCN5CCCCC5)nc4)cc3c21 [AZD1390] | 471 | 486 | 440 | 491 | > 500 | > 500 |  |  |  |  |  |
| Cn1cnc2c(F)c(Nc3ccc(Br)cc3Cl)c(C(=O)NOCCO)cc21 [Selumetinib] | 491 | > 500 | 430 | > 500 | 464 |  | 369 | > 500 | 412 | 499 | > 500 |
| O=C(/C=C\n1cnc(-c2cc(C(F)(F)F)cc(C(F)(F)F)c2)n1)NNc1cnccn1 [Selinexor] | 395 | 489 | 378 | 349 | 415 |  | 360 | 387 | 319 | 345 | 443 |
| CC(=O)[C@]1(O)Cc2c(O)c3c(c(O)c2[C@@H](O[C@H]2C[C@H](N)[C@H](O)[C@H](C)O2)C1)C(=O)c1ccccc1C3=O [Idarubicin] | 215 | 373 | 143 | 234 | 273 | 313 |  |  |  |  |  |
| CC(C)(O)c1cc(Nc2cc(Oc3cn(C4CC4)nc3C3CCOCC3)ccn2)ccn1 | > 500 | 499 | > 500 | > 500 | > 500 |  |  |  |  |  |  |
| O=C(Nc1ccc(Cl)c(C(F)(F)F)c1)NC1CCC(Oc2ccc(C(F)(F)F)cn2)CC1 (stereo not given) [UC2288] | 484 | 486 | 468 | 371 | 490 | 477 |  |  |  |  |  |
| O=C(NC[C@H](O)CO)c1ccncc1Nc1ccc(I)cc1F [Pimasertib] | 467 | > 500 | 393 | 456 | 457 | 445 |  |  |  |  |  |
| Cn1cc(-c2cc3c(N4CCN(c5ncc([C@@](C)(N)c6ccc(F)cc6)cn5)CC4)ncnn3c2)cn1 [Avapritinib] | 452 | 478 | 437 | 455 | 473 | 433 |  |  |  |  |  |
| CC(=O)Nc1cccc(-n2c(=O)n(C3CC3)c(=O)c3c(Nc4ccc(I)cc4F)n(C)c(=O)c(C)c32)c1 [Trametinib] | 418 | > 500 | 281 | 331 | 380 |  | 172 | 394 | 214 | 396 | 428 |
| CC1(N)CCN(c2cnc(-c3cccc(Cl)c3Cl)c(N)n2)CC1 [SHP099] |  | > 500 |  | 473 | 464 |  | 430 | > 500 | 479 | 500 | 483 |
| C[C@@H]1C[C@H](C)CN(S(=O)(=O)c2ccc3c(c2)C(=NO)c2cc(S(=O)(=O)N4C[C@H](C)C[C@H](C)C4)ccc2C3=NO)C1 [Tegavivint] |  | 338 |  | 236 |  |  |  |  |  |  |  |
